Experimental data: publication PMC5431435, “A short artificial antimicrobial peptide shows potential to prevent or treat bone infections” (Scientific Reports, 2017)
Converted amounts (≈) assume the structure as drawn.

What was measured:
[1] = system: human primary osteoblast-like cells; format: cell-based
Method: (§1) (1) For the cytotoxicity test, 1 × 10^4 cells were seeded in 48-well plates with cultivation medium (CM) DMEM/Ham’s F-12 (D/H; Biochrom, Germany) + 10% fetal calf serum (FCS; Biochrom, Germany) + 1% penicillin/streptomycin (P/S; Biochrom, Germany) + 0.05 mM L-ascorbic-2 phosphate (L-Asc) + 0.05 mM β-glycerolphosphate (β-Glyc) and incubated overnight at 37 °C, 5% CO2 and 95% relative humidity. After adding the AMPs (3–542 µg/ml - depending on the AMP) or gentamicin (8–1024 µg/ml) in CM with 1% FCS, without Pen/Strep, cells were cultured for three days. Cell viability was determined with an AlamarBlue® assay before adding the AMPs and after 3 days. Alkaline phosphatase activity was measured on day 3.
Alamar Blue® (Biozol, Germany) was done according to the manufacturer’s instruction.

[2] = system: human primary osteoblast-like cells; format: cell-based; remark: listed apart in the source
Method: as §1

[3] = system: S. aureus internalized in human primary osteoblast-like cells; test: Effect against internalized bacteria; format: cell-based, Staphylococcus aureus; settings: 7.5 μg/ml, n = 7
Method: Human primary osteoblast-like cells were cultivated in 24-well plates with cultivation medium until they reached a minimum confluence of 80%. For the experiment, cells were washed and S. aureus (ATCC 29213) in cultivation medium added (~2 × 10^7 cfu/ml). After an incubation of 45 minutes, extracellular bacteria were killed using 200 µg/ml gentamicin dissolved in CM with 10% FCS, without P/S. After 1 hour incubation, gentamicin solution was removed, cells washed three times and AMP2 (33 and 67 µg/ml) in CM with only 1% FCS + no P/S added for 4 and 24 hours. As reference, 7.5 µg/ml rifampicin was used. All incubation steps were done in an incubator with 37 °C, 95% humidity and 5% CO2. For determination of the internalized bacteria, cells were lysed and the supernatant plated on CA plates. Experiment were done with n = 7.

S. aureus biofilm = test: Biofilm assay by microcalorimetry and plating (MBCB); format: cell-based, Staphylococcus aureus; settings: 128 µg/ml daptomycin, calorimetry and plating (data not shown)
Method: To confirm MIC of the AMP2 by isothermal microcalorimetry, three different bouillons were tested: Mueller-Hinton II bouillon with adjusted cations (MH^++; BBL, Germany), Mueller-Hinton bouillon with low cations (MH^+; with 3–4 mg/l Ca^2+ and 5–6 mg/l Mg^2+; Oxoid, Germany) and Mueller-Hinton bouillon without cations (MH^−; Merck, Germany). AMP2 concentrations of 2–33 µg/ml were tested with the three different bouillons and gentamicin concentrations of 0.125–2 µg/ml were analyzed with MH^++. Staphylococcus aureus (ATCC 29213, 300 µl with 10^5 cfu/ml) was added to each microcalorimetry glass ampoule (Waters; Germany) containing 3.7 ml of AMP or gentamicin solution of (n = 3). The ampoules were hermetically sealed and heat flow (W) was measured for 24 hours in the calorimeter TAM III (TA Instruments, USA). For the biofilm assay, S. aureus biofilm was grown on glass beads (4 mm diameter, 60 µm pores; ROBU Glasfilter-Geräte, Germany) in MH^++ bouillon at 37 °C in an aerobe atmosphere for 24 hours. After washing with sodium chloride, beads were incubated with AMP2 (133, 267, 533 µg/ml) or daptomycin (128 µg/ml) in MH^++ bouillon for another 24 hours at 37 °C. Beads were washed again and added to the glass ampoule with fresh MH^++ bouillon. The total heat (J) was measured for 48 hours in the calorimeter. A concentration, which inhibits minimum 90% of biofilm, can be defined as the minimal biofilm inhibitory concentration (MICB). All samples were tested with n = 6.
Furthermore, the MBC for biofilms (MBCB) where 99.9% of all bacteria are killed was determined. After measurement, bouillon and glass beads were plated on CA plates and incubated for 24 hours at 37 °C in an aerobe atmosphere.

E. coli ATCC 25922 = test: Broth microdilution MIC and plating MBC; format: cell-based; settings: Escherichia coli, ATCC25922
Method: (§2) To determine the minimal inhibitory concentration (MIC), classical broth microdilution method was performed after protocols from Wiegand et al.[15]. The influence of cations was analyzed by using cation adjusted Mueller-Hinton bouillon II with 20–25 mg/l Ca^2+ and 10–12.5 mg/l Mg^2+ (MH^++; BBL, Germany) or Mueller-Hinton bouillon without cations (MH^−; Merck, Germany) (n = 4–8).
(§3) The maximal concentration of the AMPs was between 200–271 µg/ml. The differences in the AMP concentration are due to the purity of the peptides (absorption coefficient from 5.19 to 9.36).

S. aureus ATCC 29213 = test: Broth microdilution MIC and plating MBC; format: cell-based; settings: Staphylococcus aureus
Method: as §2, §3

E. faecalis ATCC 29212 = test: Broth microdilution MIC and plating MBC; format: cell-based; settings: Enterococcus faecalis, ATCC29212, MH++ (with cations), n = 4–8
Method: as §2, §3

S. epidermidis PIA 8400 = test: Broth microdilution MIC and plating MBC; format: cell-based; settings: Staphylococcus epidermidis; for MIC: 1–5 × 10^5 cfu/ml, 37 °C, 18–24 h; for MBC: plated on Columbia-agar overnight 37 °C
Method: as §2, §3

P. aeruginosa ATCC 27853 = test: Broth microdilution MIC and plating MBC; format: cell-based; settings: Pseudomonas aeruginosa; for MIC: 37 °C, 18–24 h
Method: as §2, §3

planktonic S. aureus = test: MIC by isothermal microcalorimetry, planktonic bacteria; format: cell-based, Staphylococcus aureus; settings: Staphylococcus aureus; MH++, heat flow 24 hours, n = 3; read-out: MIC (calorimetry)
Method: Mueller-Hinton II bouillon with adjusted cations (MH^++; BBL, Germany), Mueller-Hinton bouillon with low cations (MH^+; with 3-4 mg/l Ca^2+ and 5-6 mg/l Mg^2+; Oxoid, Germany) and Mueller-Hinton bouillon without cations (MH^-; Merck, Germany). AMP2 concentrations of 2-33 μg/ml were tested with the three different bouillons and gentamicin concentrations of 0.125-2 μg/ml were analyzed with MH^++. Staphylococcus aureus (ATCC 29213, 300 μl with 10^5 cfu/ml) was added to each microcalorimetry glass ampoule (Waters; […] The ampoules were hermetically sealed and heat flow (W) was measured for 24 hours in the calorimeter TAM III (TA Instruments, USA). […] ROBU […], Germany) in MH^++ bouillon at 37 °C in an aerobe atmosphere for 24 hours. […] Beads were washed again and added to the glass ampoule with fresh MH^++ bouillon. The total heat (J) was measured for 48 hours in the calorimeter. A concentration, which inhibits minimum 90% of biofilm, can be defined as the minimal biofilm inhibitory concentration (MICB). All samples were tested with n = 6.

S. aureus MSSA = test: Broth microdilution MIC and plating MBC, clinical isolate; format: cell-based; settings: Staphylococcus aureus
Source text: (§4) The strains Escherichia coli (ATCC 25922), Enterococcus faecalis (ATCC 29212), Pseudomonas aeruginosa (ATCC 27853), Staphylococcus aureus (ATCC 29213) were used. In addition, following clinical isolates were used: Staphylococcus epidermidis (PIA 8400, isolated from blood cultures[48]), and two Staphylococcus aureus (MRSA and MSSA, both isolated from osteosyntheses material, kindly provided by Andrej Trampuz, Charité).
as §2, §3

S. aureus MRSA = test: as above; format: cell-based; settings: Staphylococcus aureus, MH++ (with cations), n = 4–8
Source text: as §4, §2, §3

S. aureus (ATCC 29213) = test: Zone of inhibition test of PDLLA-coated titanium wires; format: cell-based, Staphylococcus aureus; settings: 10% w/w in poly(D,L-lactide) coating, n = 3, mean with standard deviation; day not given
Method: Titanium wires (diameter 1 mm, Synthes, USA) were coated with Poly(D,L-lactide) (PDLLA, Boehringer Ingelheim, Germany) and incorporated AMP2 at three different concentrations: 10% w/w, 20% w/w, or 30% w/w. Gentamicin/PDLLA (10% w/w) or PDLLA coated wires served as control. Briefly, 100 mg PDLLA was solved in 1.5 ml ethyl acetate and the wires were coated in a dipping procedure. Details of the coating were described previously. Three nails of each group were placed on Mueller-Hinton agar plates plated with S. aureus (ATCC 29213) and the zone of inhibition (ZOI) was quantified after 1, 3, 7, and 14 days using ImageJ software.

[4] = ATCC27853, MH++ (with cations), n = 4–8
[5] = ATCC27853, MH− (without cations), n = 4

## RTKKWIVWI [AMP3, 9mer cationic antimicrobial peptide … from an optimized peptide library]
[1]
  concentrations with no negative effect on cell viability: < 68 µg/mL
  concentrations with significant inhibition of viability compared to the control group: ≥ 68 µg/mL

## RRRIKIRWY [AMP4, 9mer cationic antimicrobial peptide … from an optimized peptide library]
[1]
  concentrations with no negative effect on cell viability: < 251 µg/mL
  concentrations with significant inhibition of viability compared to the control group: ≥ 251 µg/mL

## WRKFWKYLK [AMP5, 9mer cationic antimicrobial peptide … from an optimized peptide library]
[1]
  concentrations with no negative effect on cell viability: < 63 µg/mL
  concentrations with significant inhibition of viability compared to the control group: ≥ 63 µg/mL
[2]
  concentrations with significant inhibition of alkaline phosphatase activity compared to the control group: ≥ 63 µg/mL

## CO[C@H]1/C=C/O[C@@]2(C)Oc3c(C)c(O)c4c(O)c(c(/C=N/N5CCN(C)CC5)c(O)c4c3C2=O)NC(=O)/C(C)=C\C=C\[C@H](C)[C@H](O)[C@@H](C)[C@@H](O)[C@@H](C)[C@H](OC(C)=O)[C@@H]1C [rifampicin, reference compound]
[3]; 4 h
  internalized bacteria compared to 0 μg/ml AMP [= 100%]: 15%
[3]; 24 h
  internalized bacteria compared to 0 μg/ml AMP [= 100%]: 0.0006%

## daptomycin [reference compound]
S. aureus biofilm
  biofilm growth: completely inhibited

## CNC(C)C1CCC(N)C(OC2C(N)CC(N)C(OC3OCC(C)(O)C(NC)C3O)C2O)O1 (centres unmarked) [gentamicin]
E. coli ATCC 25922; MH++ (with cations), n = 4–8
  MBC: 2 µg/mL (≈ 4.19 µM)
E. coli ATCC 25922; MH− (without cations), 37 °C, 18–24 h, n = 4
  MIC: 1 µg/mL (≈ 2.09 µM)
S. aureus ATCC 29213; ATCC29213, MH++ (with cations), n = 4–8
  MBC: 0.5 µg/mL (≈ 1.05 µM)
S. aureus ATCC 29213; ATCC29213, MH− (without cations), n = 4
  MBC: 1 µg/mL (≈ 2.09 µM)
S. aureus ATCC 29213; ATCC29213, MH++ (with cations), 37 °C, 18–24 h, n = 4–8
  MIC: 0.5 µg/mL (≈ 1.05 µM)
E. faecalis ATCC 29212; 37 °C, 5% CO2, 18–24 h
  MIC: 16 µg/mL (≈ 33.5 µM)
E. faecalis ATCC 29212
  MBC: 32 µg/mL (≈ 67 µM)
S. epidermidis PIA 8400; PIA8400, MH++ (cation adjusted Mueller-Hinton bouillon II), n = 4–8
  MIC: 0.25 µg/mL (≈ 0.523 µM)
S. epidermidis PIA 8400; PIA8400, MH++ (with cations), n = 4–8
  MBC: 1 µg/mL (≈ 2.09 µM)
S. epidermidis PIA 8400; PIA8400, MH− (Mueller-Hinton bouillon without cations), n = 4
  MIC: 0.125 µg/mL (≈ 0.262 µM)
S. epidermidis PIA 8400; PIA8400, MH− (without cations), n = 4
  MBC: 0.25 µg/mL (≈ 0.523 µM)
P. aeruginosa ATCC 27853; [4]
  MIC: 1 µg/mL (≈ 2.09 µM)
  MBC: 4 µg/mL (≈ 8.38 µM)
P. aeruginosa ATCC 27853; [5]
  MIC: 0.25 µg/mL (≈ 0.523 µM)
  MBC: 1 µg/mL (≈ 2.09 µM)
Planktonic S. aureus
  MIC: 1 µg/mL (≈ 2.09 µM)
S. aureus MSSA; MH++ (with cations), n = 4–8
  MBC: 0.125 µg/mL (≈ 0.262 µM)
  MIC: 0.125 µg/mL (≈ 0.262 µM)
S. aureus MSSA; MH− (without cations), n = 4
  MBC: 1 µg/mL (≈ 2.09 µM)
  MIC: 0.25 µg/mL (≈ 0.523 µM)
S. aureus MRSA
  MIC: > 32 µg/mL
S. aureus (ATCC 29213)
  ZOI: 10.8 +/- 0.6 cm²

## YRLRVKWKW [AMP1, 9mer cationic antimicrobial peptide … from an optimized peptide library]
[1]
  concentrations with no negative effect on cell viability: < 100 µg/mL
  concentrations with significant inhibition of viability compared to the control group: ≥ 100 µg/mL
[2]
  concentrations with significant inhibition of alkaline phosphatase activity compared to the control group: all concentrations
